Reference: patent US7872045B2, “Combination therapy for glaucoma treatment” (Allergan, Inc., priority 2001, dated 2011)
pIC50: −log10 of the molar value.

Assays:
[1] = target: T1, human EP3 receptor (hEP3, D isoform) (Homo sapiens, UniProt P43115); experiment: Radioligand binding competition vs [3H]PGE2, human recombinant EP3 receptor; conditions: [3H]PGE2 competition, plasma membranes of transfected cells (COS-7 transient; HEK-293 also named), 60 min 25° C.
T1 construct: expressed in transfected cells; host or cells: COS-7 cells, transient transfection with pcDNA3 (lipofectin); plasma membrane fraction
T1 sequence (P43115 1-374 isoform P43115-4): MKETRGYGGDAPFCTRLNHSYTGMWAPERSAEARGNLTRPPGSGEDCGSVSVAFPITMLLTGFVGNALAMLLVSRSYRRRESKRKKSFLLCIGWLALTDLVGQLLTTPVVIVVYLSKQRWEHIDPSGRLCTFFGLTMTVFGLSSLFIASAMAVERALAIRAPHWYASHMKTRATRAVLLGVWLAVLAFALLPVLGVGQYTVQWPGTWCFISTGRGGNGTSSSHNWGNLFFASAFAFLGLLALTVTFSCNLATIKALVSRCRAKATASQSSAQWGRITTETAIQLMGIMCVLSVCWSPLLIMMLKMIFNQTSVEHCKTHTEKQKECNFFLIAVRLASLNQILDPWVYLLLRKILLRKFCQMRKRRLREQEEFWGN
Procedure: (§1) HEK-293 cells stably expressing the human or feline FP receptor, or EP1, EP2, EP3, or EP4 receptors were washed with TME buffer, scraped from the bottom of the flasks, and homogenized for 30 sec using a Brinkman PT 10/35 polytron. TME buffer was added to achieve a final 40 ml volume in the centrifuge tubes (the composition of TME is […]; ION HCl is added to achieve a pH of 7.4).
(§2) [^3H-] PGE2 (5 nM; specific activity 180 Ci mmol) was used as the radioligand for EP receptors. Binding studies employing EP1, EP2, EP3, EP4 were performed in duplicate in at least three separate experiments. A 200 μl assay volume was used. Incubations were for 60 min at 25° C. and were terminated by the addition of 4 ml of ice-cold 50 mM TRIS-HCl, followed by rapid filtration through Whatman GF/B filters and three additional 4 ml washes in a cell harvester (Brandel). Non-specific binding determined with 10^−5M of unlabeled PGE2,.
Human Recombinant EP3 and TP Receptors: Transient Transfectants.
Plasmids encoding the human EP3 (D isoform) or TP receptor were prepared by cloning the respective coding sequences into a pcDNA3 vector (Invitrogen). COS-7 cells were transfected with pcDNA3 containing cDNA encoding the EP3 or TP receptor by employing the lipofectin method, according to the manufacturers instructions (Gibco). For radioligand binding studies, cells were harvested two days after transfection.
Radioligand binding studies on plasma membrane fractions prepared from cells were performed as follows. Cells washed with TME buffer were scraped from the bottom of the plates and homogenized for 30 sec using a Brinkman PT 10/35 polytron. TME buffer was added as necessary to achieve a 40 ml volume in the centrifuge tubes. TME is comprised of 50 mM TRIS base, 10 mM MgCl2, 1 mM EDTA; pH 7.4 is achieved by adding 1 N HCl. The cell homogenate was centrifuged at 19,000 rpm for 20-25 min at 4° C. using a Beckman Ti-60 or T ? -70 rotor. The pellet was then resuspended in TME buffer to provide a final protein concentration of 1 mg/ml, as determined by Bio-Rad assay. Radioligand binding assays were performed in a 100 μl or 200 μl volume.
The binding of [^3H] PGE2 (specific activity 165 Ci/mmol) was determined in duplicate and, in at least 3 separate experiments. Incubations were for 60 min at 25° C. and were terminated by the addition of 4 ml of ice-cold 50 mM TRIS-HCl followed by rapid filtration through Whatman GF/B filters and three additional 4 ml washes in a cell harvester (Brandel). Competition studies were performed using a final concentration of 2.5 or 5 nM [H] PGE2 and non-specific binding was determined with 10^−5 M unlabelled PGE2.

[2] = target: T2, human EP4 receptor (hEP4) (Homo sapiens, UniProt P35408); experiment: Radioligand binding competition vs [3H]PGE2, human recombinant EP4 receptor; conditions: [3H]PGE2 competition, plasma membranes of HEK-293 stable transfectants, 60 min 25° C.
T2 construct: expressed in transfected cells; plasma membrane fraction
T2 sequence (P35408 whole entry): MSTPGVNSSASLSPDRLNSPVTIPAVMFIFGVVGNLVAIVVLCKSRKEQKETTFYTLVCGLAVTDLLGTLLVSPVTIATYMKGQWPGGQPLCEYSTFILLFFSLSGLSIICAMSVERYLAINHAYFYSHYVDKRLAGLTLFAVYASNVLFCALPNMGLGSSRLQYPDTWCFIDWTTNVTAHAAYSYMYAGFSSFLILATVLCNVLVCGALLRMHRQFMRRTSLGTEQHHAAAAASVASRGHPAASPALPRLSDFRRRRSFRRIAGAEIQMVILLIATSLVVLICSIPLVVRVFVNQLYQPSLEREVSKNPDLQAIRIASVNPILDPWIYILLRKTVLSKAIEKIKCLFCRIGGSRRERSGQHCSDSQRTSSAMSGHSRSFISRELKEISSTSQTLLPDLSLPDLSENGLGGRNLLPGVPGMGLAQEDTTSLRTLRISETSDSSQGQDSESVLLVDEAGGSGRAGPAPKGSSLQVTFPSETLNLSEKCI
Procedure: Human Recombinant EP1, EP2, EP4, and FP Receptors: Stable Transfectants
as §1
The cell homogenate was centrifuged at 19000 r.p.m. for 20 min at 4° C. using a Beckman Ti-60 rotor. The resultant pellet was resuspended in TME buffer to give a final 1 mg/ml protein concentration, as determined by Biorad assay. Radioligand binding competition assays vs. [^3H-]17 -phenyl PGF2α (5 nM) were performed in a 100 μl volume for 60 min. Binding reactions were started by adding plasma membrane fraction. The reaction was terminated by the addition of 4 ml ice-cold TRIS-HCl buffer and rapid filtration through glass fiber GF/B filters using a Brandel cell harvester. The filters were washed 3 times with ice-cold buffer and oven dried for one hour. Non-specific binding was determined with 10 uM unlabeled 17 -phenyl PGF2α.
as §2
Plasmids encoding the human EP1, EP2, EP4, and FP receptors were prepared by cloning the respective coding sequences into the eukaryotic expression vector pCEP4 (Invitrogen). The pCEP4 vector contains an Epstein Barr virus (EBV) origin of replication, which permits episomal replication in primate cell lines expressing EBV nuclear antigen (EBNA-1). Similarly, competitive experiments were caried out using [3H]17-phenylPGF2α at 5 nM in the presence of test ligands at various concentrations. Also non-specific binding was, determined in the presence of excess unlabeled PGF2α (10^−5 M).
It also contains a hygromycin resistance gene that is used for eukaryotic selection. The cells employed for stable transfection were human embryonic kidney cells (HEK-293) that were transfected with and express the EBNA-1 protein. These HEK-293-EBNA cells (Invitrogen) were grown in medium containing Geneticin (G418) to maintain expression of the EBNA-1 protein. HEK-293 cells were grown in DMEM with 10% fetal bovine serum (FBS), 250 μg ml G418 (Life Technologies) and 200 μg ml^−1 gentamicin or penicillin/streptomycin.
For transfection, the cells were grown to 50-60% confluency on 10 cm plates. The plasmid pCEP4 incorporating cDNA inserts for the respective human prostanoid receptor (20 μg) was added to 500 μl of 250 mM CaCl2. HEPES buffered saline ×2 (2×HBS, 280 mM NaCl, 20 mM HEPES acid, 1.5 mM Na2 HPO4, pH 7.05-7.12) was then added dropwise to a total of […], with continuous vortexing at room temperature. After 30 min, 9 ml DMEM were added to the mixture. The DNA/DMEM/calcium phosphate mixture was then added to the cells, which had been previously rinsed with 10 ml PBS. The cells were then incubated for 5 hr at 37° C. in humidified 95% air/5% CO2. The calcium phosphate solution was then removed and the cells were treated with 10% glycerol in DMEM for 2 min. The glycerol solution was then replaced by DMEM with 10% FBS. The cells were incubated overnight and the medium was replaced by DMEM/10% FBS containing 250 μg ml^−1 G418 and penicillin/streptomycin. The following day hygromycin B was added to a final concentration of 200 μg ml^−1. […]

pIC50 [1] | pIC50 [2] | Compound
< 5.00 | 7.00 | COC(=O)CSCCCS[C@H]1C(=O)C[C@@H](O)[C@@H]1/C=C/C(O)Cc1ccc2ccccc2c1 (single isomer, unassigned) [Example 21H]
< 5.00 | 7.89 | COC(=O)CSCCCS[C@H]1C(=O)C[C@@H](O)[C@@H]1/C=C/C(O)Cc1ccc2ccccc2c1 (single isomer, unassigned) [Example 21L]
< 5.00 | 7.49 | O=C(O)CSCCCS[C@H]1C(=O)C[C@@H](O)[C@@H]1/C=C/C(O)Cc1ccc2ccccc2c1 (single isomer, unassigned) [Example 22H]
 | 6.70 | COC(=O)CSCCCS[C@H]1C(=O)C[C@@H](O)[C@@H]1/C=C/C(O)Cc1csc2ccccc12 (single isomer, unassigned) [Example 24H]
 | 6.30 | COC(=O)CSCCCS[C@H]1C(=O)C[C@@H](O)[C@@H]1/C=C/C(C)(O)CCc1ccc2ccccc2c1 (single isomer, unassigned) [Example 27H]
 | 5.47 | COC(=O)CSCCCS[C@H]1C(=O)C[C@@H](O)[C@@H]1/C=C/C(C)(O)CCc1ccc2ccccc2c1 (single isomer, unassigned) [Example 27L]
 | 7.40 | COC(=O)CSCCCS[C@H]1C(=O)C[C@@H](O)[C@@H]1/C=C/C(O)CCc1ccc2ccccc2c1 (stereo partly drawn) [Example 9H, {3-[(1R,2S,3R)-3-Hydroxy-2-((S)-(E)-3-(hydroxy)-5-(naphthyl)pent-1-enyl)-5-oxocyclopentylsulfanyl]propylsulfanyl}acetic acid methyl ester]
< 5.00 |  | COC(=O)CSCCCS[C@H]1C(=O)C[C@@H](O)[C@@H]1/C=C/C(O)CCc1ccc2ccccc2c1 (stereo partly drawn) [Example 9L, {3-[(1R,2S,3R)-3-Hydroxy-2-((S)-(E)-3-(hydroxy)-5-(naphthyl)pent-1-enyl)-5-oxocyclopentylsulfanyl]propylsulfanyl}acetic acid methyl ester]
 | 7.04 | COC(=O)CSCCCS[C@H]1C(=O)C[C@@H](O)[C@@H]1/C=C/[C@@H](O)CCc1cc2ccccc2s1 [Example 13H, {3-[(1R,2S,3R)-3-Hydroxy-2-((S)-(E)-3-hydroxy-5-(benzothienyl)pent-1-enyl)-5-oxocyclopentylsulfanyl]propylsulfanyl}acetic acid methyl ester]
< 5.00 | 5.77 | CC(O)(/C=C/[C@H]1[C@H](O)CC(=O)[C@@H]1SCCCSCC(=O)O)CCc1ccc2ccccc2c1 (stereo partly drawn) [Example 28H, {3-[(1R,2S,3R)-3-Hydroxy-2-((S)-(E)-3-(hydroxy)-3-(methyl)-5-(naphthyl)pent-1-enyl)-5-oxocyclopentylsulfanyl]propylsulfanyl}acetic acid]
< 5.00 | 5.82 | CC(O)(/C=C/[C@H]1[C@H](O)CC(=O)[C@@H]1SCCCSCC(=O)O)CCc1ccc2ccccc2c1 (stereo partly drawn) [Example 28L, {3-[(1R,2S,3R)-3-Hydroxy-2-((S)-(E)-3-(hydroxy)-3-(methyl)-5-(naphthyl)pent-1-enyl)-5-oxocyclopentylsulfanyl]propylsulfanyl}acetic acid]
< 5.00 | 5.51 | COC(=O)CSCCCS[C@H]1C(=O)C[C@@H](O)[C@@H]1/C=C/C(C)(O)Cc1ccc2ccccc2c1 (stereo partly drawn) [Example 30H, {3-[(1R,2S,3R)-3-Hydroxy-2-((E)-3-hydroxy-3-methyl-4-naphthalen-2-yl-but-1-enyl)-5-oxocyclopentylsulfanyl]propylsulfanyl}acetic acid methyl ester]
 | 5.49 | COC(=O)CSCCCS[C@H]1C(=O)C[C@@H](O)[C@@H]1/C=C/C(C)(O)Cc1ccc2ccccc2c1 (stereo partly drawn) [Example 30L, {3-[(1R,2S,3R)-3-Hydroxy-2-((E)-3-hydroxy-3-methyl-4-naphthalen-2-yl-but-1-enyl)-5-oxocyclopentylsulfanyl]propylsulfanyl}acetic acid methyl ester]
5.09 | 6.52 | CC(O)(/C=C/[C@H]1[C@H](O)CC(=O)[C@@H]1SCCCSCC(=O)O)Cc1ccc2ccccc2c1 (stereo partly drawn) [Example 31H, {3-[(1R,2S,3R)-3-Hydroxy-2-((E)-3-hydroxy-3-methyl-4-naphthalen-2-yl-but-1-enyl)-5-oxocyclopentylsulfanyl]propylsulfanyl}acetic acid]
5.03 | 6.05 | CC(O)(/C=C/[C@H]1[C@H](O)CC(=O)[C@@H]1SCCCSCC(=O)O)Cc1ccc2ccccc2c1 (stereo partly drawn) [Example 31L, {3-[(1R,2S,3R)-3-Hydroxy-2-((E)-3-hydroxy-3-methyl-4-naphthalen-2-yl-but-1-enyl)-5-oxocyclopentylsulfanyl]propylsulfanyl}acetic acid]
 | 6.70 | COC(=O)CSCCCS[C@H]1C(=O)C[C@@H](O)[C@@H]1/C=C/[C@@](C)(O)CCc1cc2ccccc2s1 [Example 33H, {3-[(1R,2S,3R)-3-Hydroxy-2-((S)-(E)-3-(hydroxy)-3-(methyl)-5-(benzothienyl)pent-1-enyl)-5-oxocyclopentylsulfanyl]propylsulfanyl}acetic acid methyl ester]
 | 6.52 | COC(=O)CSCCCS[C@H]1C(=O)C[C@@H](O)[C@@H]1/C=C/[C@@](C)(O)CCc1cc2ccccc2s1 [Example 33L, {3-[(1R,2S,3R)-3-Hydroxy-2-((S)-(E)-3-(hydroxy)-3-(methyl)-5-(benzothienyl)pent-1-enyl)-5-oxocyclopentylsulfanyl]propylsulfanyl}acetic acid methyl ester]
